{"source": "ChEMBL document CHEMBL5505997", "about": "“Synthesis and biological evaluation of novel peptidomimetic inhibitors of the coronavirus 3C-like protease” (Eur J Med Chem, 2024)", "key": {"[1]": {"molecular_target": "Replicase polyprotein 1ab (Severe acute respiratory syndrome coronavirus 2, UniProt P0DTD1)", "assay": "Inhibition of amino-terminal His-SUMO tagged SARS-CoV-2 3CLpro using HilyteFluor 488-Glu-Ser-Ala-Thr-Leu-Gln-Ser-Gly-Leu-Arg-Lys-Ala-Lys-QXL 520 as FRET peptide substrate preincubated for 90 mins followed by substrate addition and measured over 30 mins by continuous FRET assay"}, "[2]": {"tested_on": "Caco-2", "assay": "Cytotoxicity against human Caco-2 cells assessed as reduction in cell viability", "type": "toxicity, cell-based", "settings": "caco-2"}, "[3]": {"molecular_target": "Replicase polyprotein 1ab (Severe acute respiratory syndrome coronavirus 2) (UniProt P0DTD1)", "settings": "time 60.0 min"}, "[4]": {"tested_on": "SARS-CoV-2", "assay": "Antiviral activity against wild type SARS-CoV-2 WA1 infected in HEK293T cells measured after 48 hrs by Nano-Glo luciferase assay", "type": "functional, organism-based", "settings": "Severe acute respiratory syndrome coronavirus 2, WA1, HEK-293T"}, "[5]": {"tested_on": "Calu-3", "assay": "Cytotoxicity against human Calu-3 cells assessed as reduction in cell viability", "type": "toxicity, cell-based", "settings": "calu-3"}, "[6]": {"tested_on": "SARS-CoV-2", "assay": "Antiviral activity against SARS-CoV-2 infected in Vero cells assessed as reduction in viral yield measured after 48 hrs by qRT-PCR analysis", "type": "functional, organism-based", "settings": "Severe acute respiratory syndrome coronavirus 2, Vero"}, "[7]": {"assay": "Cytotoxicity against human PBMC cells assessed as reduction in cell viability", "type": "toxicity, cell-based", "settings": "pbmc"}, "[8]": {"tested_on": "SARS-CoV-2", "assay": "Antiviral activity against SARS-CoV-2 infected in human Caco-2 cells assessed as reduction in viral yield measured after 72 hrs by qRT-PCR analysis", "type": "functional, organism-based, Severe acute respiratory syndrome coronavirus 2"}, "[9]": {"tested_on": "SARS-CoV-2", "assay": "Selectivity ratio of EC50 for antiviral activity against SARS-CoV-2 infected in Vero cells to EC50 for antiviral activity against SARS-CoV-2 infected in human Calu-3 cells", "type": "functional, Severe acute respiratory syndrome coronavirus 2"}, "[10]": {"tested_on": "Huh-7", "assay": "Cytotoxicity against human Huh-7 cells assessed as reduction in cell viability", "type": "toxicity, cell-based", "settings": "huh-7"}, "[11]": {"assay": "Metabolic stability in human liver microsomes assessed as half life at 1 uM measured after 0 to 90 mins by LC-MS/MS analysis", "type": "ADME, Microsome", "settings": "time 0-90 min"}, "[12]": {"tested_on": "SARS-CoV-2", "assay": "Antiviral activity against wild type SARS-CoV-2 Omicron BA.1 infected in HEK293T cells measured after 48 hrs by Nano-Glo luciferase assay", "type": "functional, organism-based", "settings": "Severe acute respiratory syndrome coronavirus 2, Omicron BA.1, HEK-293T"}, "[13]": {"tested_on": "CCRF-CEM", "assay": "Cytotoxicity against human CEM cells assessed as reduction in cell viability", "type": "toxicity, cell-based", "settings": "ccrf-cem"}, "[14]": {"tested_on": "SARS-CoV-2", "assay": "Antiviral activity against SARS-CoV-2 infected in human Calu-3 cells assessed as reduction in viral yield measured after 72 hrs by qRT-PCR analysis", "type": "functional, organism-based, Severe acute respiratory syndrome coronavirus 2", "settings": "Severe acute respiratory syndrome coronavirus 2, Calu-3; time 72 hrs"}, "[15]": {"tested_on": "Human coronavirus OC43", "assay": "Antiviral activity against Human coronavirus OC43 infected in Vero cells assessed as reduction in viral yield preincubated with virus for 1 hr followed by washout and compound treatment and measured after 3 days by qRT-PCR analysis", "type": "functional, organism-based", "settings": "Betacoronavirus 1, Vero"}, "[16]": {"molecular_target": "Replicase polyprotein 1ab (Severe acute respiratory syndrome coronavirus 2) (UniProt P0DTD1)", "settings": "time 60.0 min", "remark": "listed apart in the source"}, "[17]": {"assay": "Cytotoxicity against African green monkey Vero cells assessed as reduction in cell viability", "type": "toxicity, cell-based", "settings": "chlorocebus sabaeus, vero"}, "[18]": {"assay": "Solubility of compound in PBS", "type": "physicochemical", "settings": "buffer"}, "[19]": {"tested_on": "SARS-CoV-2", "assay": "Selectivity ratio of EC50 for antiviral activity against SARS-CoV-2 infected in Vero cells to EC50 for antiviral activity against SARS-CoV-2 infected in human Caco-2 cells", "type": "functional, Severe acute respiratory syndrome coronavirus 2"}, "[20]": {"molecular_target": "Replicase polyprotein 1ab (Severe acute respiratory syndrome coronavirus 2) (UniProt P0DTD1)", "assay": "Binding affinity to SARS-CoV-2 3CLpro assessed as thermal stabilization by measuring fold increase in melting temperature incubated for 60 mins by SYPRO orange dye based thermal shift assay relative to nirmatrelvir"}, "[21]": {"assay": "Metabolic stability in human liver microsomes assessed as half life at 1 uM incubated for 90 mins in presence of ritonavir at 1:1 combination by LC-MS/MS analysis", "type": "ADME, Microsome", "settings": "1.5 h"}, "[22]": {"assay": "Metabolic stability in human liver microsomes assessed as half life at 1 uM incubated for 90 mins in presence of ritonavir at 1:10 combination by LC-MS/MS analysis", "type": "ADME, Microsome", "settings": "1.5 h"}, "[23]": {"tested_on": "SARS-CoV-2", "assay": "Antiviral activity against SARS-CoV-2 hCoV-19/USA/GA-EHC-2811C/2021 (Omicron B.1.1.529) infected in human Calu-3 cells assessed as reduction in viral yield measured after 48 hrs by qRT-PCR analysis", "type": "functional, organism-based", "settings": "Severe acute respiratory syndrome coronavirus 2, hCoV-19/USA/GA-EHC-2811C/2021 (Omicron B.1.1.529)"}, "[24]": {"tested_on": "SARS-CoV-2", "assay": "Antiviral activity against SARS-CoV-2 hCoV-19/USA-WA1/2020 Washington strain infected in Normal human bronchial/tracheal epithelial cells cultured in air-liquid interface media assessed as reduction in viral yield pretreated with compound followed by viral infection for 4 hrs post washout and measured 3 days after virus removal by qRT-PCR analysis", "type": "functional, organism-based", "settings": "Severe acute respiratory syndrome coronavirus 2, hCoV-19/USA-WA1/2020 Washington, Epithelial cell"}, "[25]": {"molecular_target": "Replicase polyprotein 1ab (Severe acute respiratory syndrome coronavirus 2) (UniProt P0DTD1)", "assay": "Potency index, ratio of nirmatrelvir IC50 to test compound IC50 for inhibition of amino-terminal His-SUMO tagged SARS-CoV-2 3CLpro using HilyteFluor 488-Glu-Ser-Ala-Thr-Leu-Gln-Ser-Gly-Leu-Arg-Lys-Ala-Lys-QXL 520 as FRET peptide substrate preincubated for 90 mins followed by substrate addition and measured over 30 mins by continuous FRET assay", "settings": "time > 120.0 min"}, "[26]": {"assay": "Metabolic stability in human liver microsomes assessed as reduction in decay rate at 1 uM incubated for 90 mins in presence of ritonavir by LC-MS/MS analysis", "type": "ADME, Microsome", "settings": "1.5 h"}}, "data": [{"compound": "Cc1cc(C(=O)N[C@@H](Cc2cccc3ccccc23)C(=O)N[C@@H](CC(C)C)C(=O)N[C@H](C=O)C[C@@H]2CCCNC2=O)no1", "values": [{"measurement": "IC50", "setting": "[1]", "result": 166, "unit": "nM"}, {"measurement": "CC50", "setting": "[2]", "result": "> 100000", "unit": "nM"}, {"measurement": "Tm", "setting": "[3]", "result": 69.9, "unit": "°C"}, {"measurement": "EC50", "setting": "[4]", "result": 200, "unit": "nM"}, {"measurement": "CC50", "setting": "[5]", "result": "> 100000", "unit": "nM"}, {"measurement": "EC50", "setting": "[6]; 48 h", "result": 4600, "unit": "nM"}, {"measurement": "EC90", "setting": "[6]; time 48 hrs", "result": 9000, "unit": "nM"}, {"measurement": "CC50", "setting": "[7]", "result": 30900, "unit": "nM"}, {"measurement": "EC50", "setting": "[8]; Severe acute respiratory syndrome coronavirus 2, Caco-2, 72 h", "result": 100, "unit": "nM"}, {"measurement": "EC90", "setting": "[8]; Severe acute respiratory syndrome coronavirus 2, Caco-2, time 72 hrs", "result": 1200, "unit": "nM"}, {"measurement": "Ratio EC50", "setting": "[9]", "result": 3}, {"measurement": "CC50", "setting": "[10]", "result": 32700, "unit": "nM"}, {"measurement": "t1/2", "setting": "[11]", "result": "< 5", "unit": "min"}, {"measurement": "EC50", "setting": "[12]", "result": 320, "unit": "nM"}, {"measurement": "CC50", "setting": "[13]", "result": 13900, "unit": "nM"}, {"measurement": "EC90", "setting": "[14]", "result": 4300, "unit": "nM"}, {"measurement": "EC50", "setting": "[15]", "result": 100, "unit": "nM"}, {"measurement": "EC90", "setting": "[15]; 72 h, time 3 day", "result": 700, "unit": "nM"}, {"measurement": "ΔTm", "setting": "[16]", "result": 13.9, "unit": "°C"}, {"measurement": "CC50", "setting": "[17]", "result": 84300, "unit": "nM"}, {"measurement": "solubility", "setting": "[18]", "result": "< 10", "unit": "µg/mL"}, {"measurement": "Ratio EC50", "setting": "[19]", "result": 15}, {"measurement": "fold change (FC)", "setting": "[20]", "result": 2}, {"measurement": "t1/2", "setting": "[21]", "result": "> 1.5", "unit": "h"}, {"measurement": "t1/2", "setting": "[22]", "result": "> 1.5", "unit": "h"}, {"measurement": "EC50", "setting": "[23]; Calu-3, 48 h", "result": 1100, "unit": "nM"}, {"measurement": "EC90", "setting": "[23]; Calu-3, time 48 hrs", "result": 3500, "unit": "nM"}, {"measurement": "EC50", "setting": "[24]", "result": 600, "unit": "nM"}, {"measurement": "EC90", "setting": "[24]", "result": 1800, "unit": "nM"}, {"measurement": "Ratio IC50", "setting": "[25]", "result": 2}, {"measurement": "Stability", "setting": "[26]", "result": "Stable"}]}]}
